Key:
[1] = test system: Klebsiella ozaenae; assay: β-galactosidase detection on semi-solid medium, clinical and environmental strains (Example 2); type: cell-based; details: 50 mg/l + iron citrate 500 mg/l; 18 hours; 3 strains tested
[2] = test system: Providencia rettgeri; assay: as above; type: cell-based; details: 50 mg/l + iron citrate 500 mg/l; 18 hours; 3 strains tested
[3] = test system: Acinetobacter spp.; assay: as above; type: cell-based; details: 50 mg/l + iron citrate 500 mg/l; 18 hours; 53 strains tested
[4] = test system: Yersinia pseudotuberculosis; type: cell-based; details: 50 mg/l + iron citrate 500 mg/l; 18 hours; 3 strains tested
[5] = test system: Enterobacter agglomerans; assay: β-galactosidase detection on semi-solid medium, clinical and environmental strains (Example 2); type: cell-based; details: 50 mg/l + iron citrate 500 mg/l; 18 hours; 1 strain tested
[6] = test system: Serratia spp.; assay: as above; type: cell-based; details: 50 mg/l + iron citrate 500 mg/l; 18 hours; 14 strains tested
[7] = test system: Proteus vulgaris; assay: as above; type: cell-based; details: 50 mg/l + iron citrate 500 mg/l; 18 hours; 4 strains tested
[8] = test system: Yersinia enterocolitica; assay: as above; type: cell-based; details: 50 mg/l + iron citrate 500 mg/l; 18 hours; 14 strains tested
[9] = test system: Shigella boydii; assay: as above; type: cell-based; details: 50 mg/l + iron citrate 500 mg/l; 18 hours; 1 strain tested
[10] = test system: Escherichia hermannii; assay: as above; type: cell-based; details: 50 mg/l + iron citrate 500 mg/l; 18 hours; 1 strain tested
[11] = test system: Enterococcus faecium 009; assay: β-glucosidase detection in API strip wells (Example 6); details: 0.12 g/l + iron citrate 0.05 g/l
[12] = test system: Listeria seeligeri 080; assay: as above; details: 0.12 g/l + iron citrate 0.05 g/l
[13] = test system: eight (8) species tested; assay: β-glucosidase detection in API strip wells, all species together (Example 6); type: cell-based; details: of the eight (8) species tested; 0.12 g/l + iron citrate 0.05 g/l
[14] = test system: Listeria ivanovii 018; assay: Effect of metal salts on the color of the marker part, substrate 50 mg/l in Columbia medium (Example 3); type: cell-based
Procedure: (§1) To the Columbia-base medium (46.37 g/l) supplemented with Alizarin-2-β-D-glucoside (50 mg/l), were added either Manganese chloride, Ammoniacal iron citrate, Tin chloride, or Aluminum sulfate, all at a concentration of 50 mg/l. A control medium with no metal salts was tested in parallel. After autoclaving, these various media were all used to prepare Petri dishes (20 ml per plate). […] It should be pointed out that intensity readings are in arbitrary units. The only purpose of giving these values is to make it possible to compare one strain with another in this respect. The same is true for the examples which follow. Similarly, the strains tested were taken from the Applicant's collection and the number given represents an internal reference specific to this collection. The same internal numbering system is also used in some of the examples given later on.

[15] = test system: Listeria ivanovii 032; assay: as above; type: cell-based
Procedure: as §1

[16] = test system: Listeria grayi 078; assay: as above; type: cell-based
Procedure: as §1

[17] = test system: Listeria innocua 036; assay: β-glucosidase detection in API strip wells (Example 6); details: 0.12 g/l + iron citrate 0.05 g/l
[18] = test system: Listeria ivanovii 018; assay: as above; details: 0.12 g/l + iron citrate 0.05 g/l
[19] = Manganese chloride 50 mg/l, 24 H
[20] = Manganese chloride 50 mg/l, 48 H

O=C1c2ccccc2C(=O)c2c1ccc(O[C@@H]1O[C@H](CO)[C@H](O)[C@H](O)[C@H]1O)c2O [Alizarin-2-β-D-galactoside]
percentage of positive strains [1]: 100% | percentage of positive strains [2]: 0% | percentage of positive strains [3]: 0% | percentage of positive strains [4]: 67% | percentage of positive strains [5]: 100% | percentage of positive strains [6]: 86% | percentage of positive strains [7]: 0% | percentage of positive strains [8]: 64% | percentage of positive strains [9]: 0% | percentage of positive strains [10]: 100%

O=C1c2ccccc2C(=O)c2c1ccc(O[C@@H]1O[C@H](CO)[C@@H](O)[C@H](O)[C@H]1O)c2O [Alizarin-2-β-D-glucoside]
Color observed ([11]; 4 H): Purple | Color observed ([11]; 24 H): Purple | Color observed ([12]; 4 H): Purple | Color observed ([12]; 24 H): Purple | species in which activity was detected [13]: 7 species | Color ([14]; Aluminum sulfate 50 mg/l, 24 H): red | Intensity ([14]; Aluminum sulfate 50 mg/l, 24 H): 4 arbitrary units | Color ([14]; Aluminum sulfate 50 mg/l, 48 H): red | Intensity ([14]; Aluminum sulfate 50 mg/l, 48 H): 4 arbitrary units | Color ([14]; Control, no metal salt, 24 H): purple | Intensity ([14]; Control, no metal salt, 24 H): 2.3 arbitrary units | Color ([14]; Control, no metal salt, 48 H): purple | Intensity ([14]; Control, no metal salt, 48 H): 2.3 arbitrary units | Color ([14]; Iron citrate 50 mg/l, 24 H): purple | Intensity ([14]; Iron citrate 50 mg/l, 24 H): 4 arbitrary units | Color ([14]; Iron citrate 50 mg/l, 48 H): purple | Intensity ([14]; Iron citrate 50 mg/l, 48 H): 4 arbitrary units | Color [14, 19]: purple | Intensity [14, 19]: 2.7 arbitrary units | Color [14, 20]: purple | Intensity [14, 20]: 2.7 arbitrary units | Color ([14]; Tin chloride 50 mg/l, 24 H): orange | Intensity ([14]; Tin chloride 50 mg/l, 24 H): 3 arbitrary units | Color ([14]; Tin chloride 50 mg/l, 48 H): orange | Intensity ([14]; Tin chloride 50 mg/l, 48 H): 4 arbitrary units | Color ([15]; Aluminum sulfate 50 mg/l, 24 H): red | Intensity ([15]; Aluminum sulfate 50 mg/l, 24 H): 4 arbitrary units | Color ([15]; Aluminum sulfate 50 mg/l, 48 H): red | Intensity ([15]; Aluminum sulfate 50 mg/l, 48 H): 4 arbitrary units | Color ([15]; Control, no metal salt, 24 H): purple | Intensity ([15]; Control, no metal salt, 24 H): 2.3 arbitrary units | Color ([15]; Control, no metal salt, 48 H): purple | Intensity ([15]; Control, no metal salt, 48 H): 2.3 arbitrary units | Color ([15]; Iron citrate 50 mg/l, 24 H): purple | Intensity ([15]; Iron citrate 50 mg/l, 24 H): 4 arbitrary units | Color ([15]; Iron citrate 50 mg/l, 48 H): purple | Intensity ([15]; Iron citrate 50 mg/l, 48 H): 4 arbitrary units | Color [15, 19]: purple | Intensity [15, 19]: 2.3 arbitrary units | Color [15, 20]: purple | Intensity [15, 20]: 2.3 arbitrary units | Color ([15]; Tin chloride 50 mg/l, 24 H): orange | Intensity ([15]; Tin chloride 50 mg/l, 24 H): 3 arbitrary units | Color ([15]; Tin chloride 50 mg/l, 48 H): orange | Intensity ([15]; Tin chloride 50 mg/l, 48 H): 4 arbitrary units | Color ([16]; Aluminum sulfate 50 mg/l, 24 H): red | Intensity ([16]; Aluminum sulfate 50 mg/l, 24 H): 4 arbitrary units | Color ([16]; Aluminum sulfate 50 mg/l, 48 H): red | Intensity ([16]; Aluminum sulfate 50 mg/l, 48 H): 4 arbitrary units | Color ([16]; Control, no metal salt, 24 H): purple | Intensity ([16]; Control, no metal salt, 24 H): 2 arbitrary units | Color ([16]; Control, no metal salt, 48 H): purple | Intensity ([16]; Control, no metal salt, 48 H): 2.3 arbitrary units | Color ([16]; Iron citrate 50 mg/l, 24 H): purple | Intensity ([16]; Iron citrate 50 mg/l, 24 H): 4 arbitrary units | Color ([16]; Iron citrate 50 mg/l, 48 H): purple | Intensity ([16]; Iron citrate 50 mg/l, 48 H): 4 arbitrary units | Color [16, 19]: purple | Intensity [16, 19]: 2 arbitrary units | Color [16, 20]: purple | Intensity [16, 20]: 2 arbitrary units | Color ([16]; Tin chloride 50 mg/l, 24 H): orange | Intensity ([16]; Tin chloride 50 mg/l, 24 H): 3 arbitrary units | Color ([16]; Tin chloride 50 mg/l, 48 H): orange | Intensity ([16]; Tin chloride 50 mg/l, 48 H): 4 arbitrary units | Color observed ([17]; 4 H): Purple | Color observed ([17]; 24 H): Purple | Color observed ([18]; 4 H): Purple | Color observed ([18]; 24 H): Purple

Source: patent publication US7563592B2, “Alizarin-based chromogenic substrates, their uses and composition containing same” (Biomerieux, S.A., priority 1999, dated 2009)
